Earlier results, collected in patent US20170304164A1, “COMPOSITIONS, APPARATUS AND METHODS FOR MONITORING AND IMPROVING ORAL HEALTH” (Berkeley NOX Limited, priority 2016, published 2017).

Legend:
Desulfovibrio spp. = details: 0.2 mM nitrate
Porphyromonas gingivalis = details: under acidic conditions
Fusobacterium nucleatum = details: under acidic conditions
Streptococcus mutans = details: 0.2 mM nitrite, acidity levels below pH 7
Eikenella corrodens = details: under acidic conditions

## O=[N+]([O-])O [nitrate]
Desulfovibrio spp.
  growth: growth is inhibited

## O=NO [nitrite]
Porphyromonas gingivalis
  growth: inhibited the growth
Fusobacterium nucleatum
  growth: inhibited the growth
Streptococcus mutans
  effect on bacteria: effective complete killing
Eikenella corrodens
  growth: inhibited the growth
